The test system of experiment [1] is breast cancer. In words: I-SPY 2 TRIAL: pathological complete response (pCR) to neratinib plus standard chemotherapy vs concurrent control.
Description: Subjects providing samples (pre-treatment biopsies) for studies described herein were characterized based on measurement of estrogen/hormone receptor (HR) and HER2 (c-erbB2), and were described by HER2−/HR−. HER2+/HR+. HER2+/HR−, HER2−/HR+ phenotypes. Response to treatment was determined by the amount of tumor shrinkage and a lack of appreciable tumor evident at surgery. A response of tumor shrinkage and/or lack of tumor when examined (such as at surgery) is referred to herein as “complete pathological response” (pCR), and has recently been deemed by the US FDA as an appropriate clinical endpoint for therapeutic approval. Neratinib is a therapeutic agent with a mechanism of action that is as a tyrosine kinase inhibitor that binds to and inhibits c-erbB2 and EGFR protein activity and the respective linked downstream pathways. […] Methods described herein may comprise obtaining measurements of the amounts proteins from a subject sample using a protein array technology developed by the inventors, and is referred to herein as “reverse phase protein microarray” (RPPA). This microarray allows for quantitative measurement of the amount of proteins and/or phosphorylated proteins in the tumor or cancerous cells from pretreatment sample, for example from biopsy specimens of women with Stage II/III breast cancer.
This example tested the hypothesis that the response to the pan-ERBB inhibitor, neratinib, was predicted by pre-treatment HER2-EGFR signaling. […] All patients received at least standard chemotherapy (which was comprised of 12 weekly cycles of paclitaxel (a taxane) therapy followed by 4 cycles of doxorubicin/cyclophosphamide (AC) therapy). For HER2+ patients, neratinib was administered in place of trastuzumab, and all HER2+ control arm patients received chemotherapy plus trastuzumab. 18 HER family signaling proteins were evaluated as biomarkers of neratinib response using reverse phase protein microarray (RPMA) data from pre-treatment laser capture microdissection (LCM) purified tumor epithelium.
Eighteen (18) protein/phosphoproteins biomarkers relating to HER family signaling were evaluated: AKT S473, AKT T308, EGFR, EGFR Y1068, EGFR Y1148, EGFR Y1173, EGFR Y992, ERBB2, ERBB2 Y1248, ERBB3 total, ERBB3 Y1289, ERK1/2 T202/Y204, Heregulin, mTOR, mTOR S2448, PI3K p85 Y458/p55 Y199, PTEN S380, and SHC Y317. This study assessed association between biomarker and response in the neratinib and control arms alone (likelihood ratio test), and relative performance between arms (biomarker×treatment interaction) using a logistic model. Analysis was also performed adjusting for HR/HER2 status.
Experiment [2] relates to breast cancer. In words: Bayesian analysis (MCMC simulation on I-SPY 2 data): probability of superiority to control and of Phase III success. Format: in vivo, human. The text has this:
Bayesian analysis was completed using the MCMC simulation based on I-SPY 2 data with the following model: pCR˜HR+HER2+biomarker+treatment+treatment*HR+treatment*HER2+treatment*biomarker. No multiple comparison adjustments were applied. The Bayesian analytical engine developed by Don Berry (Yee et al J Clin Oncol. 2012 Dec. 20; 30(36):4584-6), is a mathematical approach that evaluates the clinical performance of a drug (in this case, neratinib) in both the treatment arm (in this case tumor shrinkage estimates by size changes observed by MRI), coupled with complete pathological response (pCR) as measured as the final response determinant, and the response of the predicate therapy in the control arm. This evaluation determined success of a given therapy for a Phase III trial, and in this case, it was determined that phosphorylation of EGFR at Y1173 was not only statistically significant at predicting or assessing response to neratinib in all patients regardless of hormone receptor levels and HER2 levels (HER2+, HER2− and HR+ and HR−), but when patients with high levels of phosphorylated EGFR (Y1173) were added to the HR−/HER2+ subgroup, the prevalence of ‘biomarker-positive’ patients increased by 50%, while increasing the predicted probability of Phase III success to 90%. Moreover, when EGFR Y1173 was used as a single marker, a statistically significant increase in Phase III success was determined for all patients compared to HER2+/HR− status as measured by immunohistochemical methods. (93% vs 87%).

Consider `CCOc1cc2ncc(C#N)c(Nc3ccc(OCc4ccccn4)c(Cl)c3)c2cc1NC(=O)/C=C/CN(C)C` [Neratinib], for which the “OR associated with treatment (pCR)” value came to 3.2 with breast cancer [1] (EGFR Y1173 High patients added to the graduating HR−/HER2+ subset) and 2.1 in the experiment on breast cancer [1] (HR−/HER2+ signature). Also, the “odds ratio (OR) of pCR between EGFR Y1173 groups in the N relative to control arm” value in the experiment with breast cancer [1] (EGFR Y1173 High vs Low, neratinib arm relative to control arm) is on record as 10.1. Also, in the experiment with breast cancer [1] (HER2+/HR− subtype), the clinical response entry is recorded as “statistically significant clinical response”. In addition, the pCR rate with breast cancer [1] (HR−/HER2+ patients, EGFR Y1173 High, neratinib arm) is listed as 12/18 (67%); with breast cancer [1] (HR−/HER2+ patients, EGFR Y1173 Low, neratinib arm (neratinib in place of trastuzumab + paclitaxel then AC)), 0/4 (0%); with breast cancer [1] (Not HR−/HER2+ patients, EGFR Y1173 High, neratinib arm), 24/57 (42%); in the experiment on breast cancer [1] (Not HR−/HER2+ patients, EGFR Y1173 Low, neratinib arm), 3/27 (11%). Also, the “trial outcome (graduation)” value in the experiment with breast cancer [1] (I-SPY 2 TRIAL, HR−/HER2+ signature) is listed as “graduated”. The pCR by subtype result in the experiment with breast cancer [1] (regardless of HER2/HR status) is given as “pCR was observed in every subtype”. The “Prob > CTRL (probability of Neratinib superiority to control)” value in the experiment with breast cancer [2] (EGFR Y1173 High) was 0.99; in the experiment on breast cancer [2] (HR−/HER2+), 0.97; with breast cancer [2] (HR−/HER2+ AND EGFR Y1173 High), 0.99; with breast cancer [2] (HR−/HER2+ OR EGFR Y1173 High), 0.99. Also, the “Prob Ph III Success” value with breast cancer [2] (EGFR Y1173 High) is recorded as 0.93; with breast cancer [2] (HR−/HER2+) it was 0.87; with breast cancer [2] (HR−/HER2+ AND EGFR Y1173 High) it was 0.95; in the experiment with breast cancer [2] (HR−/HER2+ OR EGFR Y1173 High), 0.9. In addition, the “probability of Phase III success” value in the experiment with breast cancer [2] (EGFR Y1173 used as a single marker, all patients) is on record as 93%; in the experiment with breast cancer [2] (HER2+/HR− status by immunohistochemical methods) it was 87%. The “predicted probability of Phase III success” value in the experiment on breast cancer [2] (patients with high phosphorylated EGFR (Y1173) added to the HR−/HER2+ subgroup) is 90%.

Source of the values: patent US10690672B2, “Methods for breast cancer treatment” (GEORGE MASON UNIVERSITY, priority 2015, dated 2020).
